Read-outs that look alike come from different tables or passages of the source.
Key:
EGFR-WT = EGFR-WT (Homo sapiens (Human), UniProt P00533); experiment: Omnia assay for potency assessment against EGFR (WT)
BTK [1] = target: T1, BTK (Homo sapiens (Human), UniProt Q06187); experiment: Omnia assay for potency assessment against BTK; format: biochemical; settings: [BTK]=5 nM, Omnia assay; read-out: BTK Inhibition (IC50)
Protocol: The modified BTK-optimized reagent conditions for the above protocol are:
[BTK]=5 nM, [ATP]=[…], [Y5-Sox]=[…] (ATP KMapp˜[…]).

ITK = ITK (Homo sapiens (Human), UniProt Q08881); experiment: Omnia assay for potency assessment against active forms of ITK kinase; format: biochemical; settings: [ITK]=10 nM, [ATP]=25, [Y6-Sox]=10 μM; read-out: ITK Inhibition
Protocol: [ITK]=10 nM, [ATP]=25 [Y6-Sox]=10 μM (ATP KMapp=33 μM).

BTK [2] = target: T1, BTK; experiment: BTK Ramos cellular assay (PLCγ2 phosphorylation); format: cell-based; settings: Ramos cells, 1 hour compound, anti-IgM stimulation, p-PLCγ2; read-out: BTK Inhibition (IC50), BTK Ramos cellular inhibition
BMX = BMX (Homo sapiens (Human), UniProt P51813); experiment: Omnia assay for potency assessment against active forms of BMX kinase; format: biochemical; settings: [BMX]=2.5 nM, [ATP]=100 μM, [Y5-Sox]=7.5 μM; read-out: BMX Inhibition
Protocol: Briefly, 10× stocks of EGFR-WT (PV3872) from Invitrogen and EGFR-T790M/L858R (40350) from BPS Bioscience, San Diego, Calif., 1.13×ATP (AS001A) and appropriate Tyr-Sox conjugated peptide substrates (KCZ1001) were prepared in 1× kinase reaction buffer consisting of 20 mM Tris, pH 7.5, 5 mM MgCl2, 1 mM EGTA, 5 mM β-glycerophosphate, 5% glycerol (10× stock, KB002A) and 0.2 mM DTT (DS001A).
This example describes continuous-read kinase assays to measure inherent potency of compound against active forms of BMX enzymes as described in Example 251 above except that the modified BMX-optimized reagent conditions are:
[BMX]=2.5 nM, [ATP]=100 μM, [Y5-Sox]=7.5 μM (ATP KMapp=107 μM).

BTK [3] = target: T1, BTK; experiment: Washout experiment with Ramos cells; format: cell-based; settings: 100 nM compound for 1 hour, then washout
Protocol: Ramos cells were serum starved for one hour in RPMI media+1% glutamine at 37° C. After starvation, Ramos cells were treated with 100 nM compound diluted in serum free RPMI media for 1 hour. After compound treatment, the media was removed and cells were washed with compound-free media. Subsequently, Ramos cells were washed every 2 hours and resuspended in fresh compound-free media. Cells were collected at specified timepoints, treated with 1 ug anti-human IgM (Southern Biotech cat #2022-01) for 10 minutes on ice to induce BCR signaling and then washed in PBS. Ramos cells were then lysed in Cell Extraction Buffer (Invitrogen FNN0011) supplemented with Roche complete protease inhibitor tablets (Roche 11697498001) and phosphatase inhibitors (Roche 04 906 837 001) and 18 ug total protein lysate was loaded in each lane. Inhibition of BTK kinase activity was assayed by measuring its substrate (PLCγ2) phosphorylation by western blot with phospho-specific antibodies from Cell Signaling Technologies cat #3871. The results of this experiment with compounds I-2, I-4 and I-7 are depicted in FIGS. 1, 2 and 3.

EGFR-T790M/L858R = EGFR-T790M/L858R (Homo sapiens (Human), UniProt P00533, L858R/T790M); experiment: Omnia assay for potency assessment against EGFR (T790M/L858R); settings: read-out: EGFR (T790M/L858R); EGFR mutant T790M/L858R
EGFR T790M = EGFR T790M (Homo sapiens (Human), UniProt P00533, T790M); experiment: EGFR mutant T790M inhibition assay; format: biochemical
Protocol: The Omnia Assay Protocol for potency assessment against EGFR is performed as described in Example 251 above except that the EGFR-WT- and EGFR T790M/L858R-modified optimized reagent conditions are: […]

BTK [4] = target: T1, BTK; experiment: Mass spectrometry for BTK (intact protein); format: binding; settings: 1 hr, 10× fold excess of compound
Protocol: Intact BTK was incubated for 1 hr at a 10× fold excess of I-7 to protein. Aliquots (2 μl) of the samples were diluted with 10 μl of 0.1% TFA prior to micro C4 ZipTipping directly onto the MALDI target using Sinapinic acid as the desorption matrix (10 mg/ml in 0.1% TFA:Acetonitrile 20:80).

DOHH2 = experiment: B cell lymphoma proliferation assay, DOHH2; format: cell-based
[5] = read-out: EGFR (wild type inhibition), EGFR wild type

T1 sequence (Q06187 whole entry): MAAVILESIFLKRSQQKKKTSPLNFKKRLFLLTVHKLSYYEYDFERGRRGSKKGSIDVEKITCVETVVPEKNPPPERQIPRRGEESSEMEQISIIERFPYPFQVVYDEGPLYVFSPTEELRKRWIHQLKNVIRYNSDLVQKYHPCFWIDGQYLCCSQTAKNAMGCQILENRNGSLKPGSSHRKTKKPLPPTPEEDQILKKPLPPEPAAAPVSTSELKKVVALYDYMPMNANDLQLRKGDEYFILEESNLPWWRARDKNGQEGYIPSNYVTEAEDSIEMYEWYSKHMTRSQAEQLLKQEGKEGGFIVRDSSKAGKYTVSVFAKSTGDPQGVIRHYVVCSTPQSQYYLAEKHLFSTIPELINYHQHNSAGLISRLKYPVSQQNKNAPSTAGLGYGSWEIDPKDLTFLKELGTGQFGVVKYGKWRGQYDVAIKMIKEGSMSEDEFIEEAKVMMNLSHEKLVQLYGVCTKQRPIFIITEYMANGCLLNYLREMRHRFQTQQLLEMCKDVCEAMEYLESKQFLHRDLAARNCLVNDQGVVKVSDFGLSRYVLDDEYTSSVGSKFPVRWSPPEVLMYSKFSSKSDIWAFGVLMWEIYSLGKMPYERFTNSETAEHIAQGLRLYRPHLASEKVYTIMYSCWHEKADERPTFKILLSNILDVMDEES
Sequence of ITK (Q08881 whole entry): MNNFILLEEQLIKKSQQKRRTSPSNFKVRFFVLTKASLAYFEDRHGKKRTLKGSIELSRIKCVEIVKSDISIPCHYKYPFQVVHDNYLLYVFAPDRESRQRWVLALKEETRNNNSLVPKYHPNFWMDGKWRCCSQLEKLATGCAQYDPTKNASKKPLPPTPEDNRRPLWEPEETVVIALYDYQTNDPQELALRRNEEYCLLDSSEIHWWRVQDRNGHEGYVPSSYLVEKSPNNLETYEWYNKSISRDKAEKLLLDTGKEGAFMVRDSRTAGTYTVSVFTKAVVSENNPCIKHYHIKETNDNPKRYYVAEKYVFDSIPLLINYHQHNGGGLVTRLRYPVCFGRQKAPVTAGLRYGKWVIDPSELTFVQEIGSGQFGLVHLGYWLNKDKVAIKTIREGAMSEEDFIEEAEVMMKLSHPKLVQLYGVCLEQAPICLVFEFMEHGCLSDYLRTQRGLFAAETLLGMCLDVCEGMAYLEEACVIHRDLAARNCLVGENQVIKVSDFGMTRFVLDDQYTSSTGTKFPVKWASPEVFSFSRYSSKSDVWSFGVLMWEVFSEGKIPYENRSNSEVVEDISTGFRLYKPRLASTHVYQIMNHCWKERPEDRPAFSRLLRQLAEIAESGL
Sequence of BMX (P51813 whole entry): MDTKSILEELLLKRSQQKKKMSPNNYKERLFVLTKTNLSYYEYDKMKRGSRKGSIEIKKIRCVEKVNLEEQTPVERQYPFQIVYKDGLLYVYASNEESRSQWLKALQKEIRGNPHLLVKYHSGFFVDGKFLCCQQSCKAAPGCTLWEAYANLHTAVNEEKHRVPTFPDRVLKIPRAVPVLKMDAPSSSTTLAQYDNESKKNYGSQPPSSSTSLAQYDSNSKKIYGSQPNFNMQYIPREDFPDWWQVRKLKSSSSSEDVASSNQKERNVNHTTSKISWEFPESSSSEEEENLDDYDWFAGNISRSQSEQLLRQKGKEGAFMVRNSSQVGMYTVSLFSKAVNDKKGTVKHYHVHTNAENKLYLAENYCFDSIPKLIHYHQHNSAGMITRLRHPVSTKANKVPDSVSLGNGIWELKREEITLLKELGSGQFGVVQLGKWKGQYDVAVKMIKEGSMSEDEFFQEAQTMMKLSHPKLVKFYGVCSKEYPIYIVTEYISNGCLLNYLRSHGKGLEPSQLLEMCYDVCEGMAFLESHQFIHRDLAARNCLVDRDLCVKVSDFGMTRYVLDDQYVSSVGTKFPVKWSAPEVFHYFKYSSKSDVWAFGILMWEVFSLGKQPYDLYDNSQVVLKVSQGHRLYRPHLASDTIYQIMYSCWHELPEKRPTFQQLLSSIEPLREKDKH
Sequence of EGFR-WT (P00533 668-1210): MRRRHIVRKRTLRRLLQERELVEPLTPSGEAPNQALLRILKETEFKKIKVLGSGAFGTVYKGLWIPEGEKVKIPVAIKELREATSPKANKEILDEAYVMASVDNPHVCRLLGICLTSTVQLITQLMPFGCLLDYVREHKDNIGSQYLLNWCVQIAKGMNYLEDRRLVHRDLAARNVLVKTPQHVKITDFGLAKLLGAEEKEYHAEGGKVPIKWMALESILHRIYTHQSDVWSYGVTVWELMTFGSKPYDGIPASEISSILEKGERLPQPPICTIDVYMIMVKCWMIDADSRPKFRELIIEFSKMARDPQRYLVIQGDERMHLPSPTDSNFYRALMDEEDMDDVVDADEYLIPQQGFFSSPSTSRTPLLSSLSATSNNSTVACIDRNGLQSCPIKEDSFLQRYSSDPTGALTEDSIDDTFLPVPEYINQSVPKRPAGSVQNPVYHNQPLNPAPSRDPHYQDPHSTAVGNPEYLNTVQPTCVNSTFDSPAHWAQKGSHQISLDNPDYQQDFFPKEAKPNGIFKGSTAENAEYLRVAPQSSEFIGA
Sequence of EGFR-T790M/L858R (P00533 25-1210 T790M/L858R): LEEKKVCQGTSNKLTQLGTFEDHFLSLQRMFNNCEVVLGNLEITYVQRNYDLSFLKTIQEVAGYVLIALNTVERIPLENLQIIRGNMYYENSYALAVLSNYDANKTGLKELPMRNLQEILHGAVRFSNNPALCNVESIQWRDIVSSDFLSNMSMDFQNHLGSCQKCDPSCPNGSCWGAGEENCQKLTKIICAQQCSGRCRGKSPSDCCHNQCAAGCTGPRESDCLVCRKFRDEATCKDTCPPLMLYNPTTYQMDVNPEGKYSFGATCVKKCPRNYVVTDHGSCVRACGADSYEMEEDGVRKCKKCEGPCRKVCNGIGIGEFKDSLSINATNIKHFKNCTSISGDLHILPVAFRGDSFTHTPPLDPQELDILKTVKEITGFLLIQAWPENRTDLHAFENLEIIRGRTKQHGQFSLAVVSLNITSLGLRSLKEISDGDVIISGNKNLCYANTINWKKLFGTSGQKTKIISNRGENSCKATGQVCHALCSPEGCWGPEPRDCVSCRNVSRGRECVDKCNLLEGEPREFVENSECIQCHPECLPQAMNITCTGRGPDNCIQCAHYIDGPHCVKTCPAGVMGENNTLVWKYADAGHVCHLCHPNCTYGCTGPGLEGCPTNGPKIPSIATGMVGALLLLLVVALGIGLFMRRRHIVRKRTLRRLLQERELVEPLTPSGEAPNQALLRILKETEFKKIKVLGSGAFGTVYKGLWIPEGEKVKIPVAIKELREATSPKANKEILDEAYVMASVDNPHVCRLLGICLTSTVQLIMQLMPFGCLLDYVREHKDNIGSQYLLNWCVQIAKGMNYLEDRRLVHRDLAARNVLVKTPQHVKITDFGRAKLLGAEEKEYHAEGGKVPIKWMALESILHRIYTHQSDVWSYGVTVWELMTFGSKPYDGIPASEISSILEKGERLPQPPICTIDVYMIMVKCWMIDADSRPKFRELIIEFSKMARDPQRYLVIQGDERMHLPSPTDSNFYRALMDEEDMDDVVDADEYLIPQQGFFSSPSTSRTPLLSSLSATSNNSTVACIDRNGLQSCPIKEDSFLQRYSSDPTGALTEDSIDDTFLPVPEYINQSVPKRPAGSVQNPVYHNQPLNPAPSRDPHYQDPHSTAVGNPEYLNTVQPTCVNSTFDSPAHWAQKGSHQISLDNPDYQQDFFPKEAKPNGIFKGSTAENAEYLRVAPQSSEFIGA
Sequence of EGFR T790M (P00533 25-1210 T790M): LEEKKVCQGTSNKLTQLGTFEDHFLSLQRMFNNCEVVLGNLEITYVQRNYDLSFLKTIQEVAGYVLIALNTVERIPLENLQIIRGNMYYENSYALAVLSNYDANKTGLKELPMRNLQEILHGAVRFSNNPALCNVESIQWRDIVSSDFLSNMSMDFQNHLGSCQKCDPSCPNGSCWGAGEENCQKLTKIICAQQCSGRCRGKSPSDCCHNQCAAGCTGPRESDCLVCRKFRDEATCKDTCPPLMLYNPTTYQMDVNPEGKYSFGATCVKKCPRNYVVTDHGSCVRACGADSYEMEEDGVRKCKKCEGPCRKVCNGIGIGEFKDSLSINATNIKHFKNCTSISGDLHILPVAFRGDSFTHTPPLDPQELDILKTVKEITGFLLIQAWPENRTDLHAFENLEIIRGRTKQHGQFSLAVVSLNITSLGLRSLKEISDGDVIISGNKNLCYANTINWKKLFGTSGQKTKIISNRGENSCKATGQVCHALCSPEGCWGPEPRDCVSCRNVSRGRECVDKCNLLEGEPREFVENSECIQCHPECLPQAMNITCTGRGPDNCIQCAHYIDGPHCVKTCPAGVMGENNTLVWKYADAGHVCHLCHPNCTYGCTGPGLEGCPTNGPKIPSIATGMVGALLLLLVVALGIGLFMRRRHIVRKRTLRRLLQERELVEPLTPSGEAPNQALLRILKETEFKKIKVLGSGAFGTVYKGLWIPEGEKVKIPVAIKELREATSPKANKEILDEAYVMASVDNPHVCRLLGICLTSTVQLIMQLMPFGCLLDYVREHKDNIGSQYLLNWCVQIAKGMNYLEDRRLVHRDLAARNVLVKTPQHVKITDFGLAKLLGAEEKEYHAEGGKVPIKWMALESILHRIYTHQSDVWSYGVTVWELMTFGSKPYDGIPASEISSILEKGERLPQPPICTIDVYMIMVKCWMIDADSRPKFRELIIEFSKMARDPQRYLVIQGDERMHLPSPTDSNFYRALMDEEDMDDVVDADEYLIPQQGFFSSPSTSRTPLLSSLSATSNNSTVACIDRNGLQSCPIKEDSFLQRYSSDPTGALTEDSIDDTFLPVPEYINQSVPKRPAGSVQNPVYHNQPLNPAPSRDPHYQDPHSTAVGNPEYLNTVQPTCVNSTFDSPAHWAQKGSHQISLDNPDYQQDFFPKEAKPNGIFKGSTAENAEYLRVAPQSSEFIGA

IC50 (EGFR-WT; [5]) | IC50 (BTK [1]) | IC50 (ITK) | IC50 (BTK [2]) | IC50 (BMX) | BTK Inhibition Type (BTK [3]) | IC50 (EGFR-T790M/L858R) | IC50 (EGFR T790M) | IC50 (EGFR-WT) | covalent modification of BTK (mass spectrometry) (BTK [4]) | EC50 (DOHH2) | SMILES
< 0.01 µM | < 0.01 µM | < 0.01 µM | < 0.01 µM | < 0.01 µM | irreversible | – | – | – | – | – | C=CC(=O)Nc1cccc(Oc2nc(Nc3ccccc3)ncc2C)c1 [Compound I-248, N-(3-(5-methyl-2-(phenylamino)pyrimidin-4-yloxy)phenyl)acrylamide]
< 0.01 µM | < 0.01 µM | – | 0.01 to 0.1 µM | – | – | < 0.01 µM | < 0.01 µM | – | – | – | C=CC(=O)Nc1cccc(Nc2ncc(F)c(Nc3cccc(C)c3)n2)c1 [Compound I-3, N-(3-(5-fluoro-4-(m-tolylamino)pyrimidin-2-ylamino)phenyl) acrylamide]
– | < 0.01 µM | 0.1 to 1 µM | 0.01 to 0.1 µM | < 0.01 µM | – | – | – | 0.1 to 1 µM | completely modify | – | C=CC(=O)Nc1cccc(Nc2nc(Nc3cccc(OC(F)(F)F)c3)ncc2F)c1 [Compound I-244, N-(3-(5-fluoro-2-(3-(trifluoromethoxy)phenylamino)pyrimidin-4-ylamino)phenyl)acrylamide]
– | < 0.01 µM | – | – | – | – | – | – | 0.01 to 0.1 µM | completely modify | – | C=C(C#N)C(O)c1ccc(Nc2nc(Nc3ccccc3)ncc2F)cc1 (stereo not shown) [Compound I-161, 2-((4-(5-fluoro-2-(phenylamino)pyrimidin-4-ylamino)phenyl)(hydroxy)methyl)acrylonitrile]
– | < 0.01 µM | – | – | – | – | – | – | 0.01 to 0.1 µM | completely modify | – | C=C(C#N)C(O)c1cccc(Nc2nc(Nc3ccc(OCCOC)cc3)ncc2F)c1 (stereo not shown) [Compound I-71, 2-((3-(5-fluoro-2-(4-(2-methoxyethoxy)phenylamino)pyrimidin-4-ylamino)phenyl)(hydroxy)methyl)acrylonitrile]
– | < 0.01 µM | 0.01 to 0.1 µM | 0.01 to 0.1 µM | < 0.01 µM | reversible | < 0.01 µM | – | 0.01 to 0.1 µM | – | – | Cc1cnc(Nc2ccccc2)nc1Nc1cccc(NC(=O)/C=C/CN(C)C)c1 [Compound I-38, (E)-4-(dimethylamino)-N-(3-(5-methyl-2-(phenylamino)pyrimidin-4-ylamino)phenyl)but-2-enamide]
– | < 0.01 µM | 0.01 to 0.1 µM | 0.01 to 0.1 µM | – | – | – | – | 0.01 to 0.1 µM | completely modify | – | C=CC(=O)N1CCC[C@@H](Nc2nc(Nc3cccc(OC)c3)ncc2F)C1 [Compound I-195, (R)-1-(3-(5-fluoro-2-(3-methoxyphenylamino)pyrimidin-4-ylamino)piperidin-1-yl)prop-2-en-1-one]
– | < 0.01 µM | 0.01 to 0.1 µM | < 0.01 µM | < 0.01 µM | irreversible | < 0.01 µM | – | 0.01 to 0.1 µM | – | – | C#CCOc1cccc(Nc2ncc(C)c(Nc3cccc(NC(=O)C=C)c3)n2)c1 [Compound I-35, N-(3-(5-methyl-2-(3-(prop-2-ynyloxy)phenylamino)pyrimidin-4-ylamino)phenyl) acrylamide]

The next lines start with the molecule.

SMILES | IC50 (EGFR-WT; [5]) | IC50 (BTK [1]) | IC50 (ITK) | IC50 (BTK [2]) | IC50 (BMX) | BTK Inhibition Type (BTK [3]) | IC50 (EGFR-T790M/L858R) | IC50 (EGFR T790M) | IC50 (EGFR-WT) | covalent modification of BTK (mass spectrometry) (BTK [4]) | EC50 (DOHH2)
CC(C)=CC(=O)c1cccc(Nc2nc(Nc3cccc(OCCN(C)C)c3)ncc2F)c1 [Compound I-207] | – | < 0.01 µM | < 0.01 µM | 0.1 to 1 µM | – | – | – | – | 0.1 to 1 µM | completely modify | –
C=CC(=O)N(C)Cc1ccc(Nc2nc(Nc3ccccc3)ncc2C)cc1 [Compound I-219, N-methyl-N-(4-(5-methyl-2-(phenylamino)pyrimidin-4-ylamino)benzyl)acrylamide] | – | < 0.01 µM | 0.01 to 0.1 µM | 0.01 to 0.1 µM | – | – | – | – | 0.01 to 0.1 µM | completely modify | –
C=CC(=O)Nc1cccc(Nc2nc(Nc3ccc(F)cc3)ncc2F)c1 [Compound I-247, N-(3-(5-fluoro-2-(4-fluorophenylamino)pyrimidin-4-ylamino)phenyl)acrylamide] | – | < 0.01 µM | 0.01 to 0.1 µM | < 0.01 µM | < 0.01 µM | irreversible | – | – | 0.01 to 0.1 µM | – | –
C=CC(=O)N1CCOc2ccc(Nc3ncc(F)c(Nc4cccc(Cl)c4)n3)cc21 [Compound I-149, 1-(6-(4-(3-chlorophenylamino)-5-fluoropyrimidin-2-ylamino)-2H-benzo[b][1,4]oxazin-4(3H)-yl)prop-2-en-1-one] | 1 to 10 µM | < 0.01 µM | 1 to 10 µM | 0.01 to 0.1 µM | – | – | – | – | – | completely modify | –
C=CC(=O)N1CCOc2ccc(Nc3nc(Nc4ccc(OC)nc4)ncc3C(C)=O)cc21 [Compound I-170, 1-{6-[5-Acetyl-2-(6-methoxy-pyridin-3-ylamino)-pyrimidin-4-ylamino]-2,3-dihydro-benzo[1,4]oxazin-4-yl}-propenone] | – | < 0.01 µM | < 0.01 µM | 0.01 to 0.1 µM | – | – | – | – | – | – | 1 to 10 µM

— patent US9987276B2 (Celgene CAR LLC, priority 2008, dated 2018)
